According to patent US20050058745A1, “Use of Labiatae herb preparations for extending the flavor shelf life of malt beverages” (priority 2003, published 2005):

How the values were obtained:
[1] = DCIP redox potential of highly hopped beer during aging at 40° C.; type: physicochemical; design: DCIP Redox Value: scale not given here; settings: for effect on DCIP redox potential: highly hopped beer aged at 40° C.
Method: Dr. […] H2SO4 brought to 100 mL in a volumetric flask. Four drops of starch indicator were added, and the DCIP was titrated with 0.01; sodium thiosulfate. The concentration of DCIP in mg/dL was measured by multiplying the mL of titer by 14.5. De-ionized water was added to adjust the final concentration to 1.45 mg/mL. 250 μL of adjusted DCIP was added to the 10 mL of degassed beer, the flask swirled to mix, and a 1 min timer started. The beer/DCIP was poured into a 1 cm cuvette and placed in the spectrophotometer. The absorbance was read at exactly 1 minute. These analyses were done in triplicate and averaged. […] The bottle dosing methods used were the same as those described in Example 1. The following samples were made: • 1. 20 ppm Carnosic Acid • 2. 20 ppm Carnosic Acid plus Air • 3. 20 ppm Rosmarinic Acid • 4. 20 ppm Rosmarinic Acid plus Air • 5. 10 ppm Carnosic Acid+10 ppm Rosmarinic Acid • 6. 10 ppm Carnosic Acid+10 ppm Rosmarinic Acid+Air • 7. […] No Additions. Treatments 1 through 8 were put in a temperature regulated room set at 40° C. and maintained at ±1° C. At intervals of Zero time, 3 days, 7 days, 14 days, and 21 days, samples were withdrawn and Redox Potentials were measured by the method outlined in example 4. Color measurements were made using the L, a, b system on a Minolta Spectrophotometer model […], chroma and hue angle color measure units were recorded. DPPH radical scavenging numbers were measured using the following method. A de-ionized-H2O/EtOH buffer solution was prepared by dissolving 250 mg sodium citrate dihydrate and 10 g of absolute ethanol in 250 mL of deionized water. The solution was then titrated with 0.1 N Citric acid (6.404 g/L anhydrous citric acid) a drop at a time to reach a pH of between 4.35 and 4.5.

[2] = DCIP redox potential of light beer during pasteurization; type: physicochemical; settings: for preservation of redox potential during pasteurization: 20 ppm; for Redox Potential: +20 ppm
Method: Five bottles of a commercial light beer, 81 days old at the time of the experiment, but having been stored at 2° C. were used in this experiment. The following five treatments were prepared: • 1. An unpasteurized control was prepared by leaving one bottle unopened in the refrigerator until analysis. • 2. Another bottle was opened, 20 ppm carnosic acid was added from a solution made from pure material, and the bottle fobbed and crowned. This sample was also not pasteurized. • 3. A bottle was opened, fobbed to exclude air, and crowned. This sample is designated the No Addition Pasteurized Control. • 4. A bottle was opened and 20 ppm carnosic acid was added from a solution made from pure compound. The bottle was fobbed and crowned and subjected to pasteurization. • 5. A bottle was opened and 20 ppm of rosmarinic acid was added from a solution of pure compound. The bottle was fobbed and crowned and subjected to pasteurization. Treatments 3, 4, and 5 were immersed in an ambient temperature water bath and heated to 60° C. The approximate time to reach 60° C. from ambient was 12 minutes. The bottles remained at 60° C. for 12 minutes. They were then removed and cooled. All five treatments were analyzed by the DCIP-Redox method described in Example 4.

[3] = Sensory panel staling scaling of bottled standard American lager; settings: 10 ppm (RA/CA: 5 ppm CA + 5 ppm RA)
Method: A standard American lager and a light lager were purchased commercially. The treatment bottles were opened, dosed, fobbed, crowned and inverted. The control bottles were opened, crowned and inverted. Dosing was performed as follows. One gram of pure antioxidant (corrected for actual purity) was dissolved in 100 mL ethanol and sonicated to make the antioxidant solutions of 1 weight/volume %. The volumes shown in Table 16 show the amount of the antioxidant solutions added to obtain a total of 10 ppm carnosic acid and/or rosmarinic acid in the final beverage formulations.
The sensory data were taken in the following manner. Each treatment sample was presented to the panelists one time each in two different sessions each at a different amount of aging time (5 vs. 10 days). Panelists rated the beers on a scale of 0-10, with 0 being fresh and 10 being most stale. Since the output of the panel as a whole was desired, and not any one individual panelist, the means of each treatment sample in each replicate groups were calculated and tabulated as in Table 17. Samples spiked with known amounts of off-flavors characteristic of the aged standard American lager were used as reference beers. This characterization was done in a separate descriptive session. The characteristic off-flavors in the pilot brewery beer were papery and leathery, and these were each spiked into fresh control beer at 0.75 and 1.5 times the typical flavor threshold.
Statistical analysis consisted of doing paired t-Tests on the treatment sample vs. the aged control sample (Table 18). One-tailed tests were used that probed the question whether the staling values of one treatment were lower than that of the other (e.g treatment vs. control). Confidence levels were reported along with p values.

[4] = Phenylacetaldehyde in headspace of aged beer; type: physicochemical; settings: for Phenylacetaldehyde in the headspace of aged beer: 20 ppm (RA + CA: 10 ppm each); for effect on formation of phenylacetaldehyde and 3-methylbutanal: aged beer, 40° C.
Method: The highly hopped beer from example 2 was treated with solutions of carnosic acid in ethanol, rosmarinic acid in ethanol or a mixture of carnosic acid and rosmarinic acid in ethanol as done previously. […] The bottles were fobbed to exclude air and crowned. • 3. “20 ppm CA+air” in which bottles were opened and 20 ppm CA added as above. These bottles received two puffs of air in the remaining headspace from a 25 mL bulb. They were crowned without fobbing • 4. “20 ppm RA” in which bottles were opened and 20 ppm rosmarinic acid added from a 2% solution. The bottles were fobbed and crowned. • 5. “20 ppm RA+air” which was done as in No. 4, with 20 ppm RA added. These bottles received the two puffs of air and were crowned without fobbing. • 6. “10 ppm RA+10 ppm CA” in which bottles were opened and 10 ppm each of carnosic and rosmarinic acids were added from pure solutions (178 μL of 2% solution per 12 oz bottle). Bottles were fobbed and crowned. • 7. “10 ppm RA+10 ppm CA+air” in which 10 ppm each of RA and CA was added. This treatment received two puffs of air and was not fobbed before closing. • 8. “Control+air” in which bottles were opened, given two puffs of air and crowned without fobbing. • 9. “Control” in which bottles were opened, fobbed and crowned. Treatments 2 through 9 were stored in a 40° C. hot room. At various times, bottles were opened and samples analyzed for phenylacetaldehyde and 3-methylbutanal by the method of “[…], et al. The results are shown in Table 19.

[5] = 0 days at 40° C., + Air, 20 ppm (RA + CA: 10 ppm each)
[6] = 0 days at 40° C., no air, 20 ppm (CA + RA: 10 ppm each)
[7] = 3 days at 40° C., + Air, 20 ppm (RA + CA: 10 ppm each)
[8] = 3 days at 40° C., no air, 20 ppm (CA + RA: 10 ppm each)
[9] = 7 days at 40° C., + Air, 20 ppm (RA + CA: 10 ppm each)
[10] = 7 days at 40° C., no air, 20 ppm (CA + RA: 10 ppm each)
[11] = 14 days at 40° C., + Air, 20 ppm (RA + CA: 10 ppm each)
[12] = 14 days at 40° C., no air, 20 ppm (CA + RA: 10 ppm each)
[13] = 21 days at 40° C., + Air, 20 ppm (RA + CA: 10 ppm each)
[14] = 21 days at 40° C., no air, 20 ppm (CA + RA: 10 ppm each)
[15] = pasteurized (60° C. for 12 minutes)

SMILES	DCIP Redox Value [1, 5]	DCIP Redox Value [1, 6]	DCIP Redox Value [1, 7]	DCIP Redox Value [1, 8]	DCIP Redox Value [1, 9]	DCIP Redox Value [1, 10]	DCIP Redox Value [1, 11]	DCIP Redox Value [1, 12]	DCIP Redox Value [1, 13]	DCIP Redox Value [1, 14]	effect on DCIP redox potential ([1]; no air)	effect on DCIP redox potential ([1]; with added air)	preservation of redox potential during pasteurization [2]	Redox Potential [2, 15]	Panelist staling average, Day 5 Average (0 fresh, 10 most stale) ([3]; Aged)	Panelist staling average, Day 10 Average (0 fresh, 10 most stale) ([3]; Aged)	Panelist staling average, Day 5 Average (0 fresh, 10 most stale) ([3]; Fresh)	Panelist staling average, Day 10 Average (0 fresh, 10 most stale) ([3]; Fresh)	Phenylacetaldehyde in the headspace of aged beer ([4]; Day 0, 40° C., + air) [Parts per million]	Phenylacetaldehyde in the headspace of aged beer ([4]; Day 0, 40° C., no air) [Parts per million]	further results
CC(C)c1cc2c(c(O)c1O)[C@@]1(C(=O)O)CCCC(C)(C)[C@@H]1CC2 [CA, carnosic acid]	93.8	90.6	89.1	89.1	68.9	83.5	62.1	82.3	62.9	86.9	increases the DCIP redox potential of the starting beer	beneficial effect on aged beer that contains added air	held at a higher level than the untreated, unpasteurized control	45.0	3.00	4.375	2.89	2.25	30.49	32.76	Redox Potential ([2]; no pasteurization): 67.4; Phenylacetaldehyde in the headspace of aged beer ([4]; Day 3, 40° C., + air): 42.05 Parts per million; Phenylacetaldehyde in the headspace of aged beer ([4]; Day 3, 40° C., no air): 46.34 Parts per million; Phenylacetaldehyde in the headspace of aged beer ([4]; Day 7, 40° C., + air): 63.82 Parts per million; Phenylacetaldehyde in the headspace of aged beer ([4]; Day 7, 40° C., no air): 57.39 Parts per million; Phenylacetaldehyde in the headspace of aged beer ([4]; Day 14, 40° C., + air): 25.74 Parts per million; Phenylacetaldehyde in the headspace of aged beer ([4]; Day 14, 40° C., no air): 24.75 Parts per million; Phenylacetaldehyde in the headspace of aged beer ([4]; Day 21, 40° C., + air): 88.86 Parts per million; Phenylacetaldehyde in the headspace of aged beer ([4]; Day 21, 40° C., no air): 52.94 Parts per million; effect on formation of phenylacetaldehyde and 3-methylbutanal [4]: dramatic effect in decreasing the formation of these off-flavor compounds
O=C(/C=C/c1ccc(O)c(O)c1)O[C@H](Cc1ccc(O)c(O)c1)C(=O)O [RA, rosmarinic acid]	76.0	76.3	63.4	76.2	48.3	63.9	25.1	59.9	26.6	63.4	no effect on the DCIP redox potential	not effective in preserving the DCIP redox potential	no potential to preserve the redox potential of beer during pasteurization	13.4	3.22	2.75	0.78	2.5	50.16	43.6	Phenylacetaldehyde in the headspace of aged beer ([4]; Day 3, 40° C., + air): 48.83 Parts per million; Phenylacetaldehyde in the headspace of aged beer ([4]; Day 3, 40° C., no air): 45.83 Parts per million; Phenylacetaldehyde in the headspace of aged beer ([4]; Day 7, 40° C., + air): 66.68 Parts per million; Phenylacetaldehyde in the headspace of aged beer ([4]; Day 7, 40° C., no air): 46.01 Parts per million; Phenylacetaldehyde in the headspace of aged beer ([4]; Day 14, 40° C., + air): 55.65 Parts per million; Phenylacetaldehyde in the headspace of aged beer ([4]; Day 14, 40° C., no air): 52.71 Parts per million; Phenylacetaldehyde in the headspace of aged beer ([4]; Day 21, 40° C., + air): 68.89 Parts per million; Phenylacetaldehyde in the headspace of aged beer ([4]; Day 21, 40° C., no air): 52.14 Parts per million; effect on formation of phenylacetaldehyde and 3-methylbutanal [4]: dramatic effect in decreasing the formation of these off-flavor compounds
